For this assay, the target named is T1, Human Polθ polymerase domain (aa1820-2590) (Homo sapiens, UniProt O75417).
T1 construct: Human Polθ polymerase domain (aa1820-2590) was expressed in E. coli; made in house; host or cells: E. coli
T1 sequence (O75417 1820-2590): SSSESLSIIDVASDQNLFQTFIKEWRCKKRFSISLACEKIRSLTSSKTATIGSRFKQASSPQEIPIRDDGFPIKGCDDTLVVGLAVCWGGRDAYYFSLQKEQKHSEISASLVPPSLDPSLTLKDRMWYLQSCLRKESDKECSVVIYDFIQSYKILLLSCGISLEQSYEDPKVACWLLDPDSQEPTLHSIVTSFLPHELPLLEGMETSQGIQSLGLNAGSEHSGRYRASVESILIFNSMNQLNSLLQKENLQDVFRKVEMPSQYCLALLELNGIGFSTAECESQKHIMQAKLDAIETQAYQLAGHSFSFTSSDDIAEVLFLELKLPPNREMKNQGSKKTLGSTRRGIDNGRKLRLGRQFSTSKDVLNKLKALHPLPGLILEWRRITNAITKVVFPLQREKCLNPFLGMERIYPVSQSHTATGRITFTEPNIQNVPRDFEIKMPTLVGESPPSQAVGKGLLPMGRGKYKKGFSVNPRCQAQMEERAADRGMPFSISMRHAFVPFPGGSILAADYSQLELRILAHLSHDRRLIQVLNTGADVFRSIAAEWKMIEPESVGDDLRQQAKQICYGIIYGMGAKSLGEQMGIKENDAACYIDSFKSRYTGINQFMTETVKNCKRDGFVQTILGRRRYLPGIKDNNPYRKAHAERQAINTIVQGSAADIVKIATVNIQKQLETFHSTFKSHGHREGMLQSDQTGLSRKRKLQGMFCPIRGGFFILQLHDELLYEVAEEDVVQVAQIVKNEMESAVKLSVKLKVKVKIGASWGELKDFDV
The assay is described as follows: Polθ Polymerase Domain Kinact/KI Assay (PicoGreen). The format is biochemical. The following applies: 0.8 nM Polθ, 100 nM DNA substrate, kobs vs [I] fit for 2-step covalent inhibitor. An outline of the steps:
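Kinact and KI derive from fitting kobs versus [I], where kobs were fitted from EDTA-stopped PicoGreen time courses (up to 60 min) in Tris pH 7.5 buffer with 1% DMSO, 0.8 nM enzyme, 100 nM DNA and […].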
Regarding `C=C(CN(C)C)C(=O)N1CC(C(=O)N(C)CCN2C[C@H]3CC(=O)N(c4cc(C(F)(F)F)cc(C)n4)[C@@H]3C(=O)N(C)c3cccc(Cl)c32)C1` [Example 65, N-(2-((3aR,11aS)-6-chloro-10-methyl-1-(6-methyl-4-(trifluoromethyl)pyridin-2-yl)-2,11-dioxo-1,2,3,3a,4,10,11,11a-octahydro-5H-benzo[b]pyrrolo[2,3-f][1,4]diazocin-5-yl)ethyl)-1-(2-((dimethylamino)methyl)acryloyl)-N-methylazetidine-3-carboxamide], the Kinact/Kl worked out at 4.96e+06 M⁻¹ s⁻¹. For the compound `C=CC(=O)N1CC[C@H](NCCN2C[C@H]3CC(=O)N(c4cc(C(F)(F)F)cc(C)n4)[C@@H]3C(=O)N(C)c3cccc(Cl)c32)[C@H](F)C1` [Example 66, (3aR,11aS)-5-(2-(((3R,4S)-1-acryloyl-3-fluoropiperidin-4-yl)amino)ethyl)-6-chloro-10-methyl-1-(6-methyl-4-(trifluoromethyl)pyridin-2-yl)-1,3a,4,5,10,11a-hexahydro-2H-benzo[b]pyrrolo[2,3-f][1,4]diazocine-2,11(3H)-dione], the Kinact/Kl is 2.11e+06 M⁻¹ s⁻¹. In turn, `C=CC(=O)N1CC[C@H](N(C)CCN2C[C@H]3CC(=O)N(c4cc(C(F)(F)F)cc(C)n4)[C@@H]3C(=O)N(C)c3cccc(Cl)c32)[C@H](F)C1` [Example 67, (3aR,11aS)-5-(2-(((3R,4S)-1-acryloyl-3-fluoropiperidin-4-yl)(methyl)amino)ethyl)-6-chloro-10-methyl-1-(6-methyl-4-(trifluoromethyl)pyridin-2-yl)-1,3a,4,5,10,11a-hexahydro-2H-benzo[b]pyrrolo[2,3-f][1,4]diazocine-2,11(3H)-dione] came in with a Kinact/Kl of 2.32e+06 M⁻¹ s⁻¹.

Consider `C=CC(=O)N1CC(NCCCN2C[C@H]3CC(=O)N(c4cc(C(F)(F)F)cc(C)n4)[C@@H]3C(=O)N(C)c3cccc(F)c32)C1` [Example 70, (3aR,11aS)-5-(3-((1-acryloylazetidin-3-yl)amino)propyl)-6-fluoro-10-methyl-1-(6-methyl-4-(trifluoromethyl)pyridin-2-yl)-1,3a,4,5,10,11a-hexahydro-2H-benzo[b]pyrrolo[2,3-f][1,4]diazocine-2,11(3H)-dione], for which the Kinact/Kl is 970000 M⁻¹ s⁻¹. Next, `C=CC(=O)N1CC(N(C)CCCN2C[C@H]3CC(=O)N(c4cc(C(F)(F)F)cc(C)n4)[C@@H]3C(=O)N(C)c3cccc(F)c32)C1` [Example 71, (3aR,11aS)-5-(3-((1-acryloylazetidin-3-yl)(methyl)amino)propyl)-6-fluoro-10-methyl-1-(6-methyl-4-(trifluoromethyl)pyridin-2-yl)-1,3a,4,5,10,11a-hexahydro-2H-benzo[b]pyrrolo[2,3-f][1,4]diazocine-2,11(3H)-dione]: 420000 M⁻¹ s⁻¹; `C=CC(=O)N1CC(C)(N2CCN(CCN3C[C@H]4CC(=O)N(c5cc(C(F)(F)F)cc(C)n5)[C@@H]4C(=O)N(C)c4cccc(C)c43)CC2)C1` [Example 72, (3aR,11aS)-5-(2-(4-(1-acryloyl-3-methylazetidin-3-yl)piperazin-1-yl)ethyl)-6,10-dimethyl-1-(6-methyl-4-(trifluoromethyl)pyridin-2-yl)-1,3a,4,5,10,11a-hexahydro-2H-benzo[b]pyrrolo[2,3-f][1,4]diazocine-2,11(3H)-dione]: 2.36e+06 M⁻¹ s⁻¹; `C=CC(=O)N1CCn2c(nc(CN3C[C@H]4CC(=O)N(c5cc(C(F)(F)F)cc(C)n5)[C@@H]4C(=O)N(C)c4cccc(C)c43)c2C)C1` [Example 74, (3aR,11aS)-5-((7-acryloyl-3-methyl-5,6,7,8-tetrahydroimidazo[1,2-a]pyrazin-2-yl)methyl)-6,10-dimethyl-1-(6-methyl-4-(trifluoromethyl)pyridin-2-yl)-1,3a,4,5,10,11a-hexahydro-2H-benzo[b]pyrrolo[2,3-f][1,4]diazocine-2,11(3H)-dione]: 5.83e+06 M⁻¹ s⁻¹.

The compound `C=CC(=O)N1CC(N2CCN(C(=O)CN3C[C@H]4CC(=O)N(c5cc(C(F)(F)F)cc(C)n5)[C@@H]4C(=O)N(C)c4cccc(Cl)c43)CC2)C1` [Example 75, (3aR,11aS)-5-(2-(4-(1-acryloylazetidin-3-yl)piperazin-1-yl)-2-oxoethyl)-6-chloro-10-methyl-1-(6-methyl-4-(trifluoromethyl)pyridin-2-yl)-1,3a,4,5,10,11a-hexahydro-2H-benzo[b]pyrrolo[2,3-f][1,4]diazocine-2,11(3H)-dione] gave a Kinact/Kl of 1.32e+06 M⁻¹ s⁻¹. Next, `C=C(CN(C)C)C(=O)N1CC(OCCCN2C[C@H]3CC(=O)N(c4cc(C(F)(F)F)cc(C)n4)[C@@H]3C(=O)N(C)c3cccc(C)c32)C1` [Example 77, (3aR,11aS)-5-(3-((1-(2-((dimethylamino)methyl)acryloyl)azetidin-3-yl)oxy)propyl)-6,10-dimethyl-1-(6-methyl-4-(trifluoromethyl)pyridin-2-yl)-1,3a,4,5,10,11a-hexahydro-2H-benzo[b]pyrrolo[2,3-f][1,4]diazocine-2,11(3H)-dione]: 2.55e+06 M⁻¹ s⁻¹. The value for `C=C(COC(C)=O)C(=O)N1CC(OCCCN2C[C@H]3CC(=O)N(c4cc(C(F)(F)F)cc(C)n4)[C@@H]3C(=O)N(C)c3cccc(Cl)c32)C1` [Example 78, 2-(3-(3-((3aR,11aS)-6-chloro-10-methyl-1-(6-methyl-4-(trifluoromethyl)pyridin-2-yl)-2,11-dioxo-1,2,3,3a,4,10,11,11a-octahydro-5H-benzo[b]pyrrolo[2,3-f][1,4]diazocin-5-yl)propoxy)azetidine-1-carbonyl)allyl Acetate] was 2.06e+06 M⁻¹ s⁻¹; that for `Cc1cc(C(F)(F)F)cc(N2C(=O)C[C@@H]3CN(CCCOC4CN(C(=O)/C(Cl)=C/CN(C)C)C4)c4c(F)cccc4N(C)C(=O)[C@H]32)n1` [Example 79, (3aR,11aS)-5-(3-((1-((Z)-2-chloro-4-(dimethylamino)but-2-enoyl)azetidin-3-yl)oxy)propyl)-6-fluoro-10-methyl-1-(6-methyl-4-(trifluoromethyl)pyridin-2-yl)-1,3a,4,5,10,11a-hexahydro-2H-benzo[b]pyrrolo[2,3-f][1,4]diazocine-2,11(3H)-dione] was 1.46e+06 M⁻¹ s⁻¹. Next, `C/C=C(\CN(C)C)C(=O)N1CC(OCCCN2C[C@H]3CC(=O)N(c4cc(C(F)(F)F)cc(C)n4)[C@@H]3C(=O)N(C)c3cccc(F)c32)C1` [Example 80, (3aR,11aS)-5-(3-((1-((E)-2-((dimethylamino)methyl)but-2-enoyl)azetidin-3-yl)oxy)propyl)-6-fluoro-10-methyl-1-(6-methyl-4-(trifluoromethyl)pyridin-2-yl)-1,3a,4,5,10,11a-hexahydro-2H-benzo[b]pyrrolo[2,3-f][1,4]diazocine-2,11(3H)-dione]: 810000 M⁻¹ s⁻¹; `C=C(CN(C)C)C(=O)N1CC(OCCCN2C[C@H]3CC(=O)N(c4cc(C(F)(F)F)cc(C)n4)[C@@H]3C(=O)N(C)c3ccccc32)C1` [Example 81, (3aR,11aS)-5-(3-((1-(2-((dimethylamino)methyl)acryloyl)azetidin-3-yl)oxy)propyl)-10-methyl-1-(6-methyl-4-(trifluoromethyl)pyridin-2-yl)-1,3a,4,5,10,11a-hexahydro-2H-benzo[b]pyrrolo[2,3-f][1,4]diazocine-2,11(3H)-dione]: 2.03e+06 M⁻¹ s⁻¹. Compound `Cc1cc(C(F)(F)F)cc(N2C(=O)C[C@@H]3CN(CCCOC4CN(C(=O)C5=CCCNC5)C4)c4c(C)cccc4N(C)C(=O)[C@H]32)n1` [Example 82, (3aR,11aS)-6,10-dimethyl-1-(6-methyl-4-(trifluoromethyl)pyridin-2-yl)-5-(3-((1-(1,2,5,6-tetrahydropyridine-3-carbonyl)azetidin-3-yl)oxy)propyl)-1,3a,4,5,10,11a-hexahydro-2H-benzo[b]pyrrolo[2,3-f][1,4]diazocine-2,11(3H)-dione] gave a Kinact/Kl of 920000 M⁻¹ s⁻¹. The value for `Cc1cc(C(F)(F)F)cc(N2C(=O)C[C@@H]3CN(CCCCCNC(=O)/C=C/CN(C)C)c4c(C)cccc4N(C)C(=O)[C@H]32)n1` [Example 83, (E)-N-(5-((3aR,11aS)-6,10-dimethyl-1-(6-methyl-4-(trifluoromethyl)pyridin-2-yl)-2,11-dioxo-1,2,3,3a,4,10,11,11a-octahydro-5H-benzo[b]pyrrolo[2,3-f][1,4]diazocin-5-yl)pentyl)-4-(dimethylamino)but-2-enamide] was 620000 M⁻¹ s⁻¹; that for `C=C(CN(C)C)C(=O)NCCCCCN1C[C@H]2CC(=O)N(c3cc(C(F)(F)F)cc(C)n3)[C@@H]2C(=O)N(C)c2cccc(C)c21` [Example 84, N-(5-((3aR,11aS)-6,10-dimethyl-1-(6-methyl-4-(trifluoromethyl)pyridin-2-yl)-2,11-dioxo-1,2,3,3a,4,10,11,11a-octahydro-5H-benzo[b]pyrrolo[2,3-f][1,4]diazocin-5-yl)pentyl)-2-((dimethylamino)methyl)acrylamide] was 3.61e+06 M⁻¹ s⁻¹.

The record behind these values is US20250230165A1, “HETEROCYCLIC COMPOUNDS FOR USE IN THE TREATMENT OF CANCER” (ARTIOS PHARMA LIMITED, priority 2021, published 2025).
